Laboratory results from patent US20210000890A1, “COMPOSITIONS AND METHODS FOR DENTAL CARE” (The State of Israel, Ministry of Agriculture & Rural …, priority 2019, published 2021).

How the values were obtained:
S. mutans biofilm = assay: Mono and dual-species biofilm formation, biofilm biomass by Crystal Violet staining; type: cell-based, Streptococcus mutans UA159; conditions: S. mutans cultured as monospecies in TY with the sugar alcohol, 24 h
Protocol: For B. subtilis mono-species biofilm, a starter culture was diluted 1:100 (to obtain final O.D (600 nm)=0.07)) into TY or TY supplemented with either 2% sucrose or sorbitol or mannitol at various concentrations (10, 25,50,100 or 125 mM) in 96-well plate (Nunc, Roskilde, Denmark). The plate was incubated at 37° C. in 95% air/5% CO2 for 24 h.
For S. mutans mono-species biofilm, overnight cultured S. mutans (O.D (600 nm)=1)) were diluted 1:10 into TY or TY supplemented with 2% sucrose (served as controls) or TY supplemented with different concentration of sorbitol or mannitol (10, 25,50,100 or 125 mM) into 96-well plate (Nunc). The plate was incubated at 37° C. in 95% air/5% CO2 for 24 h. For dual-species biofilm, cells of B. subtilis and S. mutans were grown into 96-well plate as follows: to fresh TY or TY supplemented with 2% sucrose or different concentration of sorbitol or mannitol (10, 25, 50, 100 or 125 mM) were introduced overnight cultured S. mutans (diluted by a ratio 1:10, approximately 2.5×10^7 CFU) and B. subtilis (diluted by a ratio 1:100, approximately 2.5×10^5 CFU). […]
The generated submerged biofilms were washed carefully twice with saline solution. […] The extract was placed in a new 96-well plate and O.D. at 595 nm was measured using a plate reader instrument (infinite PRO2000, NEOTEC Scientific Instrumentation Ltd. Camspec, Cambridge, United Kingdom)^31,32.

[1] = tested on: mltD (mannitol-1-phosphate 5-dehydrogenase); assay: Relative gene expression by real-time RT-PCR; type: cell-based, B. subtilis; conditions: TY with 50 mM sugar alcohol vs TY alone (=1)
Protocol: (§1) The cultures of either B. subtilis or S. mutans grown as described above, were diluted (1:100 or 1:10 respectively) in TY or TY supplemented with 50 mM sorbitol or mannitol. Next, B. subtilis were grown 37° C. at 150 rpm while S. mutans at 37° C. in 95% air/5% CO2. Samples for each treatment were taken after 3, 6, 12, 18 and 24 hours. One mL of RNA protect (Qiagen, Hilden, Germany) was added to each sample and incubated at RT for 5 min. After, the cells were centrifuged at 4,000×g for 10 min. RNA extraction preformed using GenUP total RNA kit (biotechrabbit, Hennigsdorf, Germany) according to the manufacture's protocol. Reverse transcription was performed using qScript cDNA synthesis kit (Quantabio, Beverly, Mass., USA).The synthesized cDNA was later used for the real-time PCR analysis of key enzymes in the metabolic pathway of S. mutans and B. subtilis (Sorbitol dehydrogenase (gutB) or Mannitol-1-phosphate 5-dehydrogenase (mltD)). The RT-PCR reaction was performed as described previously^33. Briefly, RT-PCR reaction mixture (20 μL) contained 1×SYBR Green (Invitrogen, California, USA), 1 μL cDNA sample and […] of the appropriate forward and reverse PCR primers. PCR conditions included an initial denaturation at 95° C. for 10 min, followed by a 40-cycles of amplification, consisting of denaturation at 95° C. for 15 s and annealing and extension at 60° C. for 1 min. Contamination by residual genomic DNA was determined from control reactions devoid of reverse transcriptase. The expression levels of all the tested genes by real-time PCR were normalized using the 16S rRNA gene of S. mutans as an internal standard ([…] et al., 2007) or sigA gene for B. subtilis.

S. mutans = assay: Growth curve analysis (O.D. 595 nm); type: cell-based, Streptococcus mutans UA159; conditions: for growth of S. mutans: M9 minimal medium, 50 mM as sole carbon source, 16 h; for lag phase of S. mutans: TY medium supplemented with the sugar alcohol, different concentrations
Protocol: For growth curve analysis, B. subtilis or S. mutans cultures grown as described above, were diluted (1:100 or 1:10 respectively) in TY or TY supplemented with 2% sucrose or different concentration of sorbitol or mannitol. When needed, the bacteria were diluted in M9 medium with 0.2% glucose or 50 mM sorbitol/mannitol. The cultures were then incubated at 37° C. overnight with slight shaking. The growth was recorded every hour using optical density measurement at 595 nm (infinite […]).

[2] = tested on: gutB (sorbitol dehydrogenase); assay: Relative gene expression by real-time RT-PCR; type: cell-based, B. subtilis; conditions: TY with 50 mM sugar alcohol vs TY alone (=1)
Protocol: as §1

Row | Structure (SMILES) | S. mutans monospecies biofilm compared to the TY control (S. mutans biofilm) | maximal induction rate of mltD ([1]; after 3 hours) [folds] | induction of mltD ([1]; after 6 hours until 24 hours) [fold] | growth of S. mutans (S. mutans) | lag phase of S. mutans (S. mutans) | maximal induction rate of gutB ([2]; after 3 hours) [folds] | induction of gutB ([2]; after 6 hours until 24 hours) [fold]
1 | OC[C@@H](O)[C@@H](O)[C@H](O)[C@H](O)CO [mannitol] | enhanced biofilm | 1.6 | 1.2 | did not grow | approximately 3 hours | – | –
2 | OC[C@@H](O)[C@@H](O)[C@H](O)[C@@H](O)CO [sorbitol] | enhanced biofilm | – | – | did not grow | approximately 3 hours | 2 | 1.6
